Laboratory results: PMC5562305, “Impact of novel palmitoylated prolactin-releasing peptide analogs on metabolic changes in mice with diet-induced obesity” (PLoS ONE, 2017)
Starred links: 1 amine or outer side, 2 acyl side, 3 side chain; linkers in the order of their positions; H or OH if unused. Residues, ends and D or L forms follow the SMILES beside them. Groups on a side chain read outwards from the residue. *: point of attachment. TTDA(Palmitoyl) = CCCCCCCCCCCCCCCC(=O)NCCCOCCOCCOCCCN*; γGlu = O=C(O)[C@H](CCC(=O)[*:2])N[*:1]; Palmitoyl = CCCCCCCCCCCCCCCC(=O)*; Suc = O=C(CCC(=O)[*:2])[*:1]

How the values were obtained:
[1] = Adipose tissue and liver weights in DIO mice at the end of the experiment; assay type: in vivo, C57BL/6 mice; settings: 5 mg/kg SC twice a day, 2 weeks, n = 10, mean ± SEM
Description: From 8 weeks of age, the mice were fed in house made high-fat (HF) diet to induce obesity. […] After twelve weeks of HF-diet feeding, two weeks of SC administration of lipidized PrRP analogs was initiated while the mice were kept on the HF diet. The following experimental groups were established: […] Food intake and BW were monitored daily during the dosing period. At the end of the experiment, the mice were sacrificed by decapitation. The trunk blood was collected, and the blood plasma was separated and stored at -20°C. The visceral adipose tissues (VAT) (from abdominal part), subcutaneous adipose tissues (SCAT) (all adipose tissue depots under the skin), perirenal adipose tissues, interscapular brown adipose tissues (BAT), and livers of all of the mice were dissected, weighed, flash-frozen in liquid nitrogen, and stored at -70°C for later extraction of RNA.

c-Fos = assay: Fos immunohistochemistry in mouse brain; assay type: in vivo; settings: overnight fasted mice, 5 mg/kg SC, 90 min after injection, n = 4, vs saline
Procedure: Ninety minutes after injection, the mice were deeply anesthetized with sodium pentobarbital (50 mg/kg, intraperitoneally) and perfused transcardially. The brains were withdrawn, and c-Fos immunoreactivity was determined as described in [19, 20].
For the immunohistochemical study, the c-Fos rabbit monoclonal antibody (Cell Signaling Technology, #2250S) detecting total level of endogenous c-Fos protein was used in final dilution (1:2000) for 48 h (4°C).

For CCCCCCCCCCCCCCCC(=O)N[C@@H](CCC(=O)NCCCC[C@H](NC(=O)[C@@H](NC(=O)[C@H](CCC(=O)O)NC(=O)[C@H](CCSC)NC(=O)[C@H](CO)NC(=O)[C@H](Cc1c[nH]cn1)NC(=O)[C@H](CCCNC(=N)N)NC(=O)[C@H](Cc1c[nH]cn1)NC(=O)[C@@H](NC(=O)[C@H](CCCNC(=N)N)NC(=O)[C@@H](N)CO)[C@@H](C)O)[C@@H](C)CC)C(=O)N[C@H](C(=O)N1CCC[C@H]1C(=O)N[C@@H](CC(=O)O)C(=O)N[C@H](C(=O)N[C@@H](CC(N)=O)C(=O)N1CCC[C@H]1C(=O)N[C@@H](C)C(=O)N[C@@H](Cc1c[nH]c2ccccc12)C(=O)N[C@@H](Cc1ccc(O)cc1)C(=O)N[C@@H](C)C(=O)N[C@@H](CO)C(=O)N[C@@H](CCCNC(=N)N)C(=O)NCC(=O)N[C@H](C(=O)N[C@@H](CCCNC(=N)N)C(=O)N1CCC[C@H]1C(=O)N[C@H](C(=O)NCC(=O)N[C@@H](CCCNC(=N)N)C(=O)N[C@@H](Cc1ccccc1)C(N)=O)C(C)C)[C@@H](C)CC)[C@@H](C)CC)[C@@H](C)O)C(=O)O [analog 1] (H-SRTHRHSMEIK([γGlu-Palmitoyl])TPDINPAWYASRGIRPVGRF-NH2; N-terminus assumed), the Liver weight [1] was 1.27 ± 0.05 g, the “Perirenal AT” value [1] was 2.72 ± 0.11 % of BW and the “Total AT” value [1] was 14.59 ± 0.32 % of BW. For the same compound, the “c-Fos immunoreactivity in Arc, PVN and DMN” value (c-Fos) was “significant increase”.

In the case of CCCCCCCCCCCCCCCC(=O)NCCCOCCOCCOCCCNC(=O)CCC(=O)NCCCC[C@H](NC(=O)[C@@H](NC(=O)[C@H](CCC(=O)O)NC(=O)[C@H](CCSC)NC(=O)[C@H](CO)NC(=O)[C@H](Cc1c[nH]cn1)NC(=O)[C@H](CCCNC(=N)N)NC(=O)[C@H](Cc1c[nH]cn1)NC(=O)[C@@H](NC(=O)[C@H](CCCNC(=N)N)NC(=O)[C@@H](N)CO)[C@@H](C)O)[C@@H](C)CC)C(=O)N[C@H](C(=O)N1CCC[C@H]1C(=O)N[C@@H](CC(=O)O)C(=O)N[C@H](C(=O)N[C@@H](CC(N)=O)C(=O)N1CCC[C@H]1C(=O)N[C@@H](C)C(=O)N[C@@H](Cc1c[nH]c2ccccc12)C(=O)N[C@@H](Cc1ccc(O)cc1)C(=O)N[C@@H](C)C(=O)N[C@@H](CO)C(=O)N[C@@H](CCCNC(=N)N)C(=O)NCC(=O)N[C@H](C(=O)N[C@@H](CCCNC(=N)N)C(=O)N1CCC[C@H]1C(=O)N[C@H](C(=O)NCC(=O)N[C@@H](CCCNC(=N)N)C(=O)N[C@@H](Cc1ccccc1)C(N)=O)C(C)C)[C@@H](C)CC)[C@@H](C)CC)[C@@H](C)O [analog 2] (H-SRTHRHSMEIK([Suc-TTDA(Palmitoyl)])TPDINPAWYASRGIRPVGRF-NH2; N-terminus assumed), the Liver weight [1] is reported as 1.31 ± 0.06 g, the “Perirenal AT” value [1] is reported as 2.73 ± 0.17 % of BW and the “Total AT” value [1] is reported as 15.70 ± 0.53 % of BW.

In the case of CCCCCCCCCCCCCCCC(=O)NCCCOCCOCCOCCCNC(=O)CCC(=O)NCCCC[C@H](NC(=O)[C@@H](NC(=O)[C@H](CCC(=O)O)NC(=O)[C@H](CCSC)NC(=O)[C@H](CO)NC(=O)[C@H](Cc1c[nH]cn1)NC(=O)[C@H](CCCNC(=N)N)NC(=O)[C@H](Cc1c[nH]cn1)NC(=O)[C@@H](NC(=O)[C@H](CCCNC(=N)N)NC(=O)[C@H](CO)NC(=O)CCC(=O)NCCCOCCOCCOCCCNC(=O)CCCCCCCCCCCCCCC)[C@@H](C)O)[C@@H](C)CC)C(=O)N[C@H](C(=O)N1CCC[C@H]1C(=O)N[C@@H](CC(=O)O)C(=O)N[C@H](C(=O)N[C@@H](CC(N)=O)C(=O)N1CCC[C@H]1C(=O)N[C@@H](C)C(=O)N[C@@H](Cc1c[nH]c2ccccc12)C(=O)N[C@@H](Cc1ccc(O)cc1)C(=O)N[C@@H](C)C(=O)N[C@@H](CO)C(=O)N[C@@H](CCCNC(=N)N)C(=O)NCC(=O)N[C@H](C(=O)N[C@@H](CCCNC(=N)N)C(=O)N1CCC[C@H]1C(=O)N[C@H](C(=O)NCC(=O)N[C@@H](CCCNC(=N)N)C(=O)N[C@@H](Cc1ccccc1)C(N)=O)C(C)C)[C@@H](C)CC)[C@@H](C)CC)[C@@H](C)O [analog 3] ({TTDA(Palmitoyl)-Suc}-SRTHRHSMEIK([Suc-TTDA(Palmitoyl)])TPDINPAWYASRGIRPVGRF-NH2), the Liver weight [1] is reported as 1.58 ± 0.09 g, the “Perirenal AT” value [1] is reported as 3.09 ± 0.16 % of BW and the “Total AT” value [1] is reported as 16.13 ± 0.38 % of BW.
